Values joined by “and” are separate entries in the source; they are usually repeats but may differ in a detail not shown here. Identical values can stand only once. Inconclusive results and toxic doses are left out.
Test system: P388 leukemia ip, CD2F1 mice, survival T/C
Test: NCI In Vivo Anticancer Drug Screen. Data for tumor model P388 Leukemia (intraperitoneal) in CD2F1 (CDF1) mice
Conditions: endpoint: median survival time, higher = longer survival
Outline: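 Mice carrying the transplanted tumor received test compound or vehicle. Survival was recorded in each group, and the value is the treated-group measurement divided by that of the vehicle-treated control group.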

[1] = dose: 50.0 mg/kg/injection, schedule: Q01DX005 (ip), vehicle: saline with Tween-80
[2] = dose: 100.0 mg/kg/injection, schedule: Q01DX005 (ip), vehicle: saline with Tween-80
[3] = dose: 200.0 mg/kg/injection, schedule: Q01DX005 (ip), vehicle: saline with Tween-80
[4] = dose: 60.0 mg/kg/injection, schedule: Q01DX005 (ip), vehicle: saline
[5] = dose: 120.0 mg/kg/injection, schedule: Q01DX005 (ip), vehicle: saline
[6] = dose: 50.0 mg/kg/injection, schedule: Q01DX009 (ip), vehicle: saline with Tween-80
[7] = dose: 100.0 mg/kg/injection, schedule: Q01DX009 (ip), vehicle: saline with Tween-80
[8] = dose: 200.0 mg/kg/injection, schedule: Q01DX009 (ip), vehicle: saline with Tween-80
[9] = dose: 6.25 mg/kg/injection, schedule: Q01DX005 (ip), vehicle: saline with Tween-80
[10] = dose: 12.5 mg/kg/injection, schedule: Q01DX005 (ip), vehicle: saline with Tween-80
[11] = dose: 50.0 mg/kg/injection, schedule: Q01DX009 (ip), vehicle: saline + alcohol
[12] = dose: 50.0 mg/kg/injection, schedule: Q01DX005 (ip), vehicle: Klucel (hydroxypropylcellulose) (HPC)
[13] = dose: 60.0 mg/kg/injection, schedule: Q01DX005 (ip), vehicle: saline with Tween-80
[14] = dose: 120.0 mg/kg/injection, schedule: Q01DX005 (ip), vehicle: saline with Tween-80
[15] = dose: 240.0 mg/kg/injection, schedule: Q01DX005 (ip), vehicle: saline with Tween-80
[16] = dose: 50.0 mg/kg/injection, schedule: Q01DX009 (ip), vehicle: Klucel (hydroxypropylcellulose) (HPC)
[17] = dose: 100.0 mg/kg/injection, schedule: Q01DX009 (ip), vehicle: Klucel (hydroxypropylcellulose) (HPC)
[18] = dose: 100.0 mg/kg/injection, schedule: Q01DX005 (ip), vehicle: Klucel (hydroxypropylcellulose) (HPC)
[19] = dose: 200.0 mg/kg/injection, schedule: Q01DX005 (ip), vehicle: Klucel (hydroxypropylcellulose) (HPC)
[20] = dose: 240.0 mg/kg/injection, schedule: Q01DX005 (ip), vehicle: saline
[21] = dose: 200.0 mg/kg/injection, schedule: Q01DX009 (ip), vehicle: Klucel (hydroxypropylcellulose) (HPC)
[22] = dose: 50.0 mg/kg/injection, schedule: Q01DX009 (ip), vehicle: saline
[23] = dose: 100.0 mg/kg/injection, schedule: Q01DX009 (ip), vehicle: saline
[24] = dose: 200.0 mg/kg/injection, schedule: Q01DX009 (ip), vehicle: saline

For `c1ccc(/C(=N\Nc2nc3ccccc3s2)c2ccccn2)cc1`, the T/C [1] was 104 % of control, the T/C [2] was 109 % of control and the T/C [3] was 95 % of control.

`CCCCC(CN(C)C)C(=O)/C=C/c1ccccc1` (configuration not stated) was tested, and the T/C [4] was 109 % of control and the T/C [5] was 123 % of control.

With `CCOC(=O)CC(CC(=O)OCC)(C(=O)OCC)C(=O)OCC` the T/C [6] was 92 % of control, the T/C [7] was 100 % of control and the T/C [8] was 96 % of control. For the same compound, the T/C (dose: 400.0 mg/kg/injection, schedule: Q01DX009 (ip), vehicle: saline with Tween-80) was 100 % of control.

In the case of `[CH3][Ge]([Cl])([c]1ccccc1)[c]1cccc2ccccc12` (configuration not stated), the T/C (dose: 100.0 mg/kg/injection, schedule: Q04DX003 (ip), vehicle: saline) is reported as 102 % of control, the T/C (dose: 200.0 mg/kg/injection, schedule: Q04DX003 (ip), vehicle: saline) is reported as 97 % of control and the T/C (dose: 400.0 mg/kg/injection, schedule: Q04DX003 (ip), vehicle: saline) is reported as 101 % of control.

`N#CC(Br)(Br)C(=O)c1nc(N)nc(N)n1` was tested, and the T/C (dose: 3.12 mg/kg/injection, schedule: Q01DX005 (ip), vehicle: saline with Tween-80) was 96 % of control, the T/C [9] was 100 % of control and the T/C [10] was 104 % of control.

With `CCN(CC)CCNc1ccc(O)c2sc3ccccc3c(=O)c12` the T/C (dose: 6.25 mg/kg/injection, schedule: Q01DX009 (ip), vehicle: saline + alcohol) was 94 % of control, the T/C (dose: 12.5 mg/kg/injection, schedule: Q01DX009 (ip), vehicle: saline + alcohol) was 89 % of control and the T/C (dose: 25.0 mg/kg/injection, schedule: Q01DX009 (ip), vehicle: saline + alcohol) was 99 % of control. The T/C [11] was 103 % of control.

With `COc1cccc(/C=C/C(C)=N/NC(N)=O)c1` the T/C (dose: 30.0 mg/kg/injection, schedule: Q01DX005 (ip), vehicle: Klucel (hydroxypropylcellulose) (HPC)) was 100 % of control, the T/C (dose: 60.0 mg/kg/injection, schedule: Q01DX005 (ip), vehicle: Klucel (hydroxypropylcellulose) (HPC)) was 101 % of control and the T/C (dose: 120.0 mg/kg/injection, schedule: Q01DX005 (ip), vehicle: Klucel (hydroxypropylcellulose) (HPC)) was 100 % of control. For the same compound, the T/C (dose: 240.0 mg/kg/injection, schedule: Q01DX005 (ip), vehicle: Klucel (hydroxypropylcellulose) (HPC)) was 95 % of control.

With `CCCc1cc(=O)n(-c2ccc([N+](=O)[O-])cn2)c(=S)[nH]1` the T/C (dose: 12.5 mg/kg/injection, schedule: Q01DX005 (ip), vehicle: Klucel (hydroxypropylcellulose) (HPC)) was 95 % of control, the T/C (dose: 25.0 mg/kg/injection, schedule: Q01DX005 (ip), vehicle: Klucel (hydroxypropylcellulose) (HPC)) was 106 % of control and the T/C [12] was 101 % of control and 116 % of control.

For `COc1cc2c(cc1OC)[Se](Br)(Br)c1cc(OC)c(OC)cc1[Se]2`, the T/C [13] was 107 % of control, the T/C [14] was 98 % of control and the T/C [15] was 100 % of control.

With `C=CCN=C(NC#N)SC` the T/C [16] was 103 % of control and the T/C [17] was 111 % of control.

`Cc1cccc(C)c1NC(=O)CCC(=O)C(C)C(=O)c1ccc(O)cc1` (configuration not stated) was tested, and the T/C (dose: 100.0 mg/kg/injection, schedule: Q01DX001 (ip), vehicle: saline with Tween-80) was 100 % of control, the T/C (dose: 200.0 mg/kg/injection, schedule: Q01DX001 (ip), vehicle: saline with Tween-80) was 100 % of control and the T/C (dose: 400.0 mg/kg/injection, schedule: Q01DX001 (ip), vehicle: saline with Tween-80) was 97 % of control.

In the case of `CCCC#CC#N`, the T/C (dose: 50.0 mg/kg/injection, schedule: Q01DX009 (ip), vehicle: olive oil, sesame oil, peanut oil) is reported as 116 % of control.

In the case of `CN(C)c1nnn(Cc2ccccc2)n1`, the T/C [12] is reported as 101 % of control, the T/C [18] is reported as 97 % of control and the T/C [19] is reported as 104 % of control.

In the case of `CN1C(=O)N/C(=C2/CCOC2=O)C1=O`, the T/C [6] is reported as 106 % of control, the T/C [7] is reported as 88 % of control and the T/C [8] is reported as 98 % of control.

With `CCCSC(=O)Nc1cc(OC)ccc1OC` the T/C [13] was 98 % of control, the T/C [14] was 98 % of control and the T/C [15] was 104 % of control.

With `CC(=O)Nc1ccc(/C=N/NC(=O)COc2ccccc2)cc1` the T/C [4] was 100 % of control, the T/C [5] was 100 % of control and the T/C [20] was 100 % of control.

With `Clc1ccc(N=Cc2cccs2)c(Cl)c1` the T/C [16] was 118 % of control, the T/C [17] was 107 % of control and the T/C [21] was 110 % of control.

For `CC1=NN=C(C)C1=Cc1ccccc1[N+](=O)[O-]`, the T/C [16] was 99 % of control, the T/C [17] was 95 % of control and the T/C [21] was 101 % of control.

`CCOC(=O)C1=NN2C(O)C3(C)CC(C(=O)OCC)=NN3C(O)C2(C)C1` (configuration not stated) was tested, and the T/C [22] was 105 % of control, the T/C [23] was 107 % of control and the T/C [24] was 99 % of control.

With `Cc1ccc(N=C(SSC(Cl)(Cl)Cl)SSC(Cl)(Cl)Cl)cc1` the T/C (dose: 6.25 mg/kg/injection, schedule: Q01DX009 (ip), vehicle: saline with Tween-80) was 91 % of control, the T/C (dose: 12.5 mg/kg/injection, schedule: Q01DX009 (ip), vehicle: saline with Tween-80) was 99 % of control and the T/C (dose: 25.0 mg/kg/injection, schedule: Q01DX009 (ip), vehicle: saline with Tween-80) was 100 % of control. The T/C [11] was 104 % of control and the T/C [6] was 101 % of control.

For `Cl/N=C1C=C/C(=N\Cl)C=C/1Cl`, the T/C [9] was 110 % of control, the T/C [10] was 110 % of control and the T/C (dose: 25.0 mg/kg/injection, schedule: Q01DX005 (ip), vehicle: saline with Tween-80) was 107 % of control.

With `CC1(c2ccccc2)OC1C(=O)N(c1ccccc1)c1ccccc1` (configuration not stated) the T/C (dose: 100.0 mg/kg/injection, schedule: Q04DX003 (ip), vehicle: Klucel (hydroxypropylcellulose) (HPC)) was 96 % of control, the T/C (dose: 200.0 mg/kg/injection, schedule: Q04DX003 (ip), vehicle: Klucel (hydroxypropylcellulose) (HPC)) was 94 % of control and the T/C (dose: 400.0 mg/kg/injection, schedule: Q04DX003 (ip), vehicle: Klucel (hydroxypropylcellulose) (HPC)) was 88 % of control.

`CN=C(NC(C)C)c1ccc(NC(=O)c2ccc(C(=O)Nc3ccc(C(=NC)NC(C)C)cc3)cc2)cc1` was tested, and the T/C (dose: 32.0 mg/kg/injection, schedule: Q01DX009 (ip), vehicle: saline) was 122 % of control, the T/C (dose: 64.0 mg/kg/injection, schedule: Q01DX009 (ip), vehicle: saline) was 109 % of control and the T/C (dose: 96.0 mg/kg/injection, schedule: Q04DX003 (ip), vehicle: saline with Tween-80) was 154 % of control.

`C=C(c1ccc(OC)c(OC)c1)c1nccc2cc(OC)c(OC)cc12` was tested, and the T/C [12] was 98 % of control, the T/C [18] was 96 % of control and the T/C [19] was 100 % of control.

For `NC(=S)n1nc(-c2ccccc2)c(N=Nc2ccc(Cl)cc2Cl)c1-c1ccccc1`, the T/C [1] was 94 % of control, the T/C [2] was 88 % of control and the T/C [3] was 96 % of control.

With `Cc1cc(C2(O)CCCc3ccccc32)[n+]([O-])cc1C` (configuration not stated) the T/C (dose: 50.0 mg/kg/injection, schedule: Q01DX005 (ip), vehicle: saline + Tween-80 + alcohol) was 106 % of control, the T/C (dose: 100.0 mg/kg/injection, schedule: Q01DX005 (ip), vehicle: saline + Tween-80 + alcohol) was 104 % of control and the T/C (dose: 200.0 mg/kg/injection, schedule: Q01DX005 (ip), vehicle: saline + Tween-80 + alcohol) was 107 % of control.

`O=[N+]([O-])/C=C/c1cc(Br)c(O)c(Br)c1` was tested, and the T/C [22] was 96 % of control, the T/C [23] was 115 % of control and the T/C [24] was 96 % of control.

With `O=C1c2ccccc2SCC12OC2c1ccc(Cl)cc1` (configuration not stated) the T/C (dose: 100.0 mg/kg/injection, schedule: Q04DX002 (ip), vehicle: saline with Tween-80) was 95 % of control and the T/C (dose: 200.0 mg/kg/injection, schedule: Q04DX002 (ip), vehicle: saline with Tween-80) was 90 % of control.

With `COC(=O)C(=O)C(C(=O)C=C(C)C)c1nc2n(c1O)C(=N)N=N2` (configuration not stated) the T/C [4] was 116 % of control, the T/C [5] was 107 % of control and the T/C [20] was 104 % of control.
